Molecular target: T1, CDK12 (Homo sapiens, UniProt Q9NYV4)
T1 construct: endogenous in cells; host or cells: CAL-120 human breast cancer cells (DSMZ ACC 459)
Test: CDK12 protein level in CAL-120 cells (Protein Simple)
Format: cell-based
Settings: 18 h, CDK12/HSP90 peak area ratio, read-out: CDK12 protein level in CAL-120 breast ca cells DC50-[mol/l] (median)
Protocol: CAL-120 human breast cancer cells (DSMZ ACC 459) were seeded at 300,000 cells/well in 6-well plates containing 2 mL of growth medium (DMEM, 10% FCS, glutamine) and incubated for 24 h at 37° C. in an humidified incubator. Test compounds were added at various concentrations, control wells received solvent (DMSO), and the plates were incubated for another 18 h at 37° C. Cells were washed 2 times with PBS and lysed in 75 microL lysis buffer (MSD-Puffer (MSD, #R^60TX-2), +1% SDS+PhosSTOP (Roche #04906837001)+ complete mini (Roche #04693159001)) by scraping. The lysates were pushed 2 times through Qiashedders followed by centrifugation at 14,000 rpm for 30-50 sec. The supernatant was stored at −20° C. […] CDK12 and HSP90 (loading control) were detected using anti-human CDK12 antibody (Cell Signaling Technologies (CST) #11793) at 1:25 dilution and anti-human HSP90 antibody (CST #4877) at 1:5,000 dilution. CDK12 and HSP90 peak areas were determined using Protein Simple Compass software. Ratio of CDK12/HSP90 peak areas were calculated for each sample, and DC50 values (degrading concentration to achieve 50% reduction relative to vehicle treated control) were determined by means of a 4 parameter fit.

T1 sequence (Q9NYV4 whole entry): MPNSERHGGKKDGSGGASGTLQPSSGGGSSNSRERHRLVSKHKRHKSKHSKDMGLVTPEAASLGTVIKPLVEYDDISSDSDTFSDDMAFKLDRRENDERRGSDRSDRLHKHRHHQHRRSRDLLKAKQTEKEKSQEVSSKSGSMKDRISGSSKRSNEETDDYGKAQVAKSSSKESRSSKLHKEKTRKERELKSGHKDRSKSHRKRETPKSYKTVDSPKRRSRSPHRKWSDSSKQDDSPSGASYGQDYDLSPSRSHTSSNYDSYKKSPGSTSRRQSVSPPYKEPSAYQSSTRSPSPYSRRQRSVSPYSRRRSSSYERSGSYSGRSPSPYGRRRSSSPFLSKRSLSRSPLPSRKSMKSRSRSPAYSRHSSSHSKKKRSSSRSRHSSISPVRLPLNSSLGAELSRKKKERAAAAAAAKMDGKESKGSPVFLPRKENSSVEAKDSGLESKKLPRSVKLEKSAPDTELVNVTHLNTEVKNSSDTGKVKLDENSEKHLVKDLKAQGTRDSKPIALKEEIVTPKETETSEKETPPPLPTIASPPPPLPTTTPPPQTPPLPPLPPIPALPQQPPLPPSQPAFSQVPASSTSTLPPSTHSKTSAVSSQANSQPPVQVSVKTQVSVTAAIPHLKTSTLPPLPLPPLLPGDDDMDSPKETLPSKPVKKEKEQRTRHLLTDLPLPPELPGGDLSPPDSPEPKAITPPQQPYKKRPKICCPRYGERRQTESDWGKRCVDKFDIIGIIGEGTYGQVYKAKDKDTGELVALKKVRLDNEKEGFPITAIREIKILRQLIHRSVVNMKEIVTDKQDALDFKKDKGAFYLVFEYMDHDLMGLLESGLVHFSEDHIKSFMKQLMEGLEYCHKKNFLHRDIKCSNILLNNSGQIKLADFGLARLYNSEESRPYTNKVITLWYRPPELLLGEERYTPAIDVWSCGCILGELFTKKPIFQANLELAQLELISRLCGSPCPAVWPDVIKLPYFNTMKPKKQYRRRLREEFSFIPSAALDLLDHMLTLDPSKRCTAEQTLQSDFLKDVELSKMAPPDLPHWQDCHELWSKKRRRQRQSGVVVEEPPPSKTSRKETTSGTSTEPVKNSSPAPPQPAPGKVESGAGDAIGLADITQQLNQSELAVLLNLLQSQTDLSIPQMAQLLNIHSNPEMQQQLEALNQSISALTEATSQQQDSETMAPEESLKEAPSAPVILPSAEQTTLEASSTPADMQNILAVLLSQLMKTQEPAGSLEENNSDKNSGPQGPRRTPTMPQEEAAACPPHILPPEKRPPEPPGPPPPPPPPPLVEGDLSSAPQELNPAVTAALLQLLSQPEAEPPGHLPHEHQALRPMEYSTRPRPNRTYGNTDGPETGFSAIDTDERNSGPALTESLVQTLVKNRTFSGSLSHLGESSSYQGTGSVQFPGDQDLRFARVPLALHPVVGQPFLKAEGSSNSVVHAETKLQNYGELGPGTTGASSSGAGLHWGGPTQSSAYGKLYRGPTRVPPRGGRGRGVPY
T1 sequence (O75909 whole entry partner): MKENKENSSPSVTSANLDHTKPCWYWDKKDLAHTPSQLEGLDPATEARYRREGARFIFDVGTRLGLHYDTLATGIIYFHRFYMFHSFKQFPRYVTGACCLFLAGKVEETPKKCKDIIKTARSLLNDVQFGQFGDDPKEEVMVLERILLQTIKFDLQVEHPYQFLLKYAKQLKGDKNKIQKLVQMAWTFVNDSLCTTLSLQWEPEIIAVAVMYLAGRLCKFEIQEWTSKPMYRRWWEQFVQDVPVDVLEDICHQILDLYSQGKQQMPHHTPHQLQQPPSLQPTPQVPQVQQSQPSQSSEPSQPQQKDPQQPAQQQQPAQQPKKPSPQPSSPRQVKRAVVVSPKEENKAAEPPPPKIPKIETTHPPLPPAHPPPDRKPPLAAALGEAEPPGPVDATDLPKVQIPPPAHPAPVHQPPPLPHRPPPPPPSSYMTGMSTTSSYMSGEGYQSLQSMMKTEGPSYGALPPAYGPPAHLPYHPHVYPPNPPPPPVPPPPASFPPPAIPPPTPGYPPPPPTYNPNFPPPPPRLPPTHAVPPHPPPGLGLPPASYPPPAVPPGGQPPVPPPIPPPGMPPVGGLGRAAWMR

DC50 [nM] | Compound
5.81 | N#Cc1cnc2c(NCc3nc4ccccc4[nH]3)nc(N3CCOCC3)nn12 [Example 2, 4-{[(1H-benzimidazol-2-yl)methyl]amino}-2-(morpholin-4-yl)imidazo[2,1-f][1,2,4]triazine-7-carbonitrile]
< 3 | Brc1cnc2c(NCc3nc4ccccc4[nH]3)nc(N3CCOCC3)nn12 [Example 1, N-[(1H-benzimidazol-2-yl)methyl]-7-bromo-2-(morpholin-4-yl)imidazo[2,1-f][1,2,4]triazin-4-amine]
